From US10206907B2, “Compounds useful for the treatment of degenerative and inflammatory diseases” (GALAPAGOS NV, priority 2008, dated 2019)

Tests used:
[1] = test system: JAK-STAT signalling in HeLa cells; assay: JAK-STAT signalling assay (OSM-triggered pSTAT1(2)-luciferase reporter in HeLa cells); format: cell-based; settings: Homo sapiens; HeLa cells, OSM-triggered pSTAT1(2)-luciferase reporter; read-out: STAT signalling EC50
Procedure: HeLa cells were maintained in Dulbecco's Modified Eagle's Medium (DMEM) containing 10% heat inactivated fetal calf serum, 100 U/mL penicillin and 100 μg/mL streptomycin. HeLa cells were used at 70% confluence for transfection. 20,000 cells in 87 μL cell culture medium were transiently transfected with 40 ng pSTAT1(2)-luciferase reporter (Panomics), 8 ng of LacZ reporter as internal control reporter and 52 ng of pBSK using 0.32 μL Jet-PEI (Polyplus) as transfection reagent per well in 96-well plate format. After overnight incubation at 37° C., 10% CO2, transfection medium was removed.
40 μL of cell lysate was used to read β-galactosidase activity by adding 180 μL βGal solution (30 μl ONPG 4 mg/mL+150 μL β-Galactosidase buffer (0.06 M Na2HPO4, 0.04 M NaH2PO4, 1 mM MgCl2)) for 20 min.
Luciferase activity was measured using 40 μL cell lysate plus 40 μl of Steadylite® as described by the manufacturer (Perkin Elmer), on the Envision (Perkin Elmer).
The positive and negative controls were used to calculate z’ and ‘percent inhibition’ (PIN) values.
PIN values were plotted for compounds tested in dose-response and EC50 values were derived.

[2] = molecular target: Recombinant human JAK2 catalytic domain (Homo sapiens (Human), UniProt O60674); assay: JAK2 inhibition assay; format: biochemical; settings: semi-quantitative score
In short: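 Activity was taken as vehicle cpm minus cpm with 10 μM staurosporine, and inhibition was expressed on that scale. Incubation was 90 min at 30 °C, followed by acid quench, phosphoric acid washes and Microscint counting. Compounds were tested as dose series to obtain IC50.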

[3] = molecular target: Recombinant human JAK1 catalytic domain (Homo sapiens (Human), UniProt P23458); assay: JAK1 inhibition assay; format: biochemical; settings: semi-quantitative score
In short: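 IC50 values come from dose-response series, with each point expressed as percent inhibition of cpm. Vehicle sets full activity and 10 μM staurosporine sets background. Incorporated radioactivity counted by scintillation after washing with 75 mM phosphoric acid.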

MMP13 in SW1353 cells = assay: OSM/IL-1β signaling assay (MMP13 levels in SW1353 cells); format: cell-based; settings: Homo sapiens; SW1353 cells, OSM and IL-1β triggered, MMP13 levels 48 hours after triggering; read-out: MMP13 EC50;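 note: secreted MMP13 captured by antibody, activated with APMA and its activity read by fluorescence, inhibition scaled between vehicle-treated triggered wells (0%) and untriggered wells (100%)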

Chain of Recombinant human JAK1 catalytic domain (P23458 850-1154): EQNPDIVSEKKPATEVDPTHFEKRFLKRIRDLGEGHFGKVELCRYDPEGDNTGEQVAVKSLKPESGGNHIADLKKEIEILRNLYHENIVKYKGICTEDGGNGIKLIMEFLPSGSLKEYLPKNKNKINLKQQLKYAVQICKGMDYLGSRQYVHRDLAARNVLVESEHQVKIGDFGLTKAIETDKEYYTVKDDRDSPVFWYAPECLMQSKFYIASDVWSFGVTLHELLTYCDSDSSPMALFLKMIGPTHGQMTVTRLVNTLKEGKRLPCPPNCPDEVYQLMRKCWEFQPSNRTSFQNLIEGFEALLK
Chain of Recombinant human JAK2 catalytic domain (O60674 808-1132): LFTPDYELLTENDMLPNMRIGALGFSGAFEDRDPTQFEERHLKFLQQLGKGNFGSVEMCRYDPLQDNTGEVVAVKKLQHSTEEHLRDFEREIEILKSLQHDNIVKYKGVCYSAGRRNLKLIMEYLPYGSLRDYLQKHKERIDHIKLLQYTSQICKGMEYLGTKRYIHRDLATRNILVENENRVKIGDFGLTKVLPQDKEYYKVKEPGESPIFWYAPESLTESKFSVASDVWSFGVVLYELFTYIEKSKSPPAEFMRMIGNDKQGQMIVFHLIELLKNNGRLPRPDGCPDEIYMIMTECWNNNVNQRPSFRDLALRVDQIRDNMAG

Row | Structure (SMILES) | EC50 [1] [nM] | IC50 [2] [nM] | IC50 [3] [nM] | EC50 (MMP13 in SW1353 cells) [nM]
1 | O=C(Nc1nc2cccc(-c3ccc(NS(=O)(=O)c4ccccc4)cc3)n2n1)C1CC1 [Compound 79, N-(5-(4-(phenylsulfonamido)phenyl)-[1,2,4]triazolo[1,5-a]pyridin-2-yl)cyclopropanecarboxamide] | > 1000 |  | < 100 | 501 to 1000
2 | O=C(Nc1cccnn1)c1ccc(-c2cccc3nc(NC(=O)C4CC4)nn23)cc1 [Compound 221, 4-[2-(Cyclopropanecarbonyl-amino)-[1,2,4]triazolo[1,5-a]pyridin-5-yl]-N-pyridazin-3-yl-benzamide] | > 1000 | 101 to 500 | < 100 | > 1000
3 | COc1ccc(CN(C)C(=O)c2ccc(-c3cccc4nc(NC(=O)C5CC5)nn34)cc2)cc1 [Compound 31, 4-(2-(cyclopropanecarboxamido)-[1,2,4]triazolo[1,5-a]pyridin-5-yl)-N-(4-methoxybenzyl)-N-methylbenzamide] | > 1000 | 101 to 500 | < 100 | > 1000
4 | O=C(Nc1ccc(-c2cccc3nc(NC(=O)C4CC4)nn23)cc1)c1ccc(C(F)(F)F)cc1 [Compound 22, N-(4-(2-(cyclopropanecarboxamido)-[1,2,4]triazolo[1,5-a]pyridin-5-yl)phenyl)-4-(trifluoromethyl)benzamide] | > 1000 | 101 to 500 | 101 to 500 | > 1000
5 | O=C(Nc1nc2cccc(-c3ccc(COc4ccccc4)cc3)n2n1)C1CC1 [Compound 238, Cyclopropanecarboxylic acid [5-(4-phenoxymethyl-phenyl)-[1,2,4]triazolo[1,5-a]pyridin-2-yl]-amide] | 501 to 1000 | < 100 | < 100 | > 1000
6 | O=C(Nc1nc2cccc(-c3ccc(CNc4cccnc4)cc3)n2n1)C1CC1 [Compound 223, Cyclopropanecarboxylic acid {5-[4-(pyridin-3-ylaminomethyl)-phenyl]-[1,2,4]triazolo[1,5-a]pyridin-2-yl}-amide] | > 1000 | 501 to 1000 | < 100 | > 1000
7 | O=C(Nc1nc2cccc(-c3ccc(OCc4ccc(-c5nnn[nH]5)nc4)cc3)n2n1)C1CC1 [Compound 183, Cyclopropanecarboxylic Acid (5-{4-[6-(2H-tetrazol-5-yl)-pyridin-3-ylmethoxy]-phenyl}-[1,2,4]triazolo[1,5-a]pyridin-2-yl)-amide] | > 1000 |  | < 100 | > 1000
8 | O=C(Nc1nc2cccc(-c3ccc(C(=O)N4CCC(COc5cccnc5)CC4)cc3)n2n1)C1CC1 [Compound 292, Cyclopropanecarboxylic acid (5-{4-[4-(pyridin-3-yloxymethyl)-piperidine-1-carbonyl]-phenyl}-[1,2,4]triazolo[1,5-a]pyridin-2-yl)-amide] | > 1000 | 101 to 500 | < 100 | > 1000
9 | O=C(Nc1nc2cccc(-c3ccc(CNc4cccnn4)cc3)n2n1)C1CC1 [Compound 222, Cyclopropanecarboxylic acid {5-[4-(pyridazin-3-ylaminomethyl)-phenyl]-[1,2,4]triazolo[1,5-a]pyridin-2-yl}-amide] | > 1000 | 101 to 500 | < 100 | > 1000
10 | O=C(Nc1nc2cccc(-c3ccc(CN4CCOC(c5ccccc5)C4)cc3)n2n1)C1CC1 (stereo not drawn) [Compound 231] | > 1000 | 101 to 500 | < 100 | 1 to 500
11 | O=C(NC1CCCCC1)c1ccc(-c2cccc3nc(NC(=O)C4CC4)nn23)cc1 [Compound 26, N-cyclohexyl-4-(2-(cyclopropanecarboxamido)-[1,2,4]triazolo[1,5-a]pyridin-5-yl)benzamide] | > 1000 | 101 to 500 | 101 to 500 | > 1000

The remaining lines, values ahead:

Row | EC50 [1] [nM] | IC50 [2] [nM] | IC50 [3] [nM] | EC50 (MMP13 in SW1353 cells) [nM] | Structure (SMILES)
12 | > 1000 | > 1000 | 101 to 500 | > 1000 | O=C(Nc1nc2cccc(-c3ccc(C(=O)N4CCCNCC4)cc3)n2n1)C1CC1 [Compound 28, N-(5-(4-(1,4-diazepane-1-carbonyl)phenyl)-[1,2,4]triazolo[1,5-a]pyridin-2-yl)cyclopropanecarboxamide]
13 | > 1000 | 101 to 500 | < 100 | > 1000 | O=C(Nc1nc2cccc(-c3ccc(C(=O)N4CCCC(O)C4)cc3)n2n1)C1CC1 (stereo not drawn) [Compound 270, Cyclopropanecarboxylic acid {5-[4-(3-hydroxy-piperidine-1-carbonyl)-phenyl]-[1,2,4]triazolo[1,5-a]pyridin-2-yl)-amide]
14 | > 1000 | 101 to 500 | < 100 | > 1000 | O=C(Nc1nc2cccc(-c3ccc(C(=O)N4CCCC(CO)C4)cc3)n2n1)C1CC1 (stereo not drawn) [Compound 276, Cyclopropanecarboxylic acid {5-[4-(3-hydroxymethyl-piperidine-1-carbonyl)-phenyl]-[1,2,4]triazolo[1,5-a]pyridin-2-yl}-amide]
15 |  | > 1000 | 501 to 1000 | > 1000 | CN1CCC(NC(=O)c2ccc(-c3cccc4nc(NC(=O)C5CC5)nn34)cc2)CC1 [Compound 32, 4-(2-(cyclopropanecarboxamido)-[1,2,4]triazolo[1,5-a]pyridin-5-yl)-N-(1-methylpiperidin-4-yl)benzamide]
16 |  | 101 to 500 | 101 to 500 | > 1000 | O=C(Nc1nc2cccc(-c3ccc(C(=O)N4CCOCC4)cc3)n2n1)C1CC1 [Compound 24, N-(5-(4-(morpholine-4-carbonyl)phenyl)-[1,2,4]triazolo[1,5-a]pyridin-2-yl)cyclopropanecarboxamide]
17 | > 1000 |  | < 100 | > 1000 | CC(=O)NC1CN(C(=O)c2ccc(-c3cccc4nc(NC(=O)C5CC5)nn34)cc2)C1 [Compound 287, Cyclopropanecarboxylic acid {5-[4-(3-acetylamino-azetidine-1-carbonyl)-phenyl]-[1,2,4]triazolo[1,5-a]pyridin-2-yl}-amide]
18 | > 1000 | 501 to 1000 | < 100 | > 1000 | CN(C)C1CCN(C(=O)c2ccc(-c3cccc4nc(NC(=O)C5CC5)nn34)cc2)C1 (stereo not drawn) [Compound 289, Cyclopropanecarboxylic acid {5-[4-(3-dimethylamino-pyrrolidine-1-carbonyl)-phenyl]-[1,2,4]triazolo[1,5-a]pyridin-2-yl}-amide]
19 | > 1000 | 501 to 1000 | 101 to 500 | > 1000 | CC(C)(C)C1CCN(C(=O)c2ccc(-c3cccc4nc(NC(=O)C5CC5)nn34)cc2)CC1 [Compound 27, N-(5-(4-(4-tert-butylpiperidine-1-carbonyl)phenyl)-[1,2,4]triazolo[1,5-a]pyridin-2-yl)cyclopropanecarboxamide]
20 | > 1000 | 101 to 500 | < 100 | > 1000 | NC(=O)C1CCCCN1C(=O)c1ccc(-c2cccc3nc(NC(=O)C4CC4)nn23)cc1 (stereo not drawn) [Compound 275, 1-{4-[2-(Cyclopropanecarbonyl-amino)-[1,2,4]triazolo[1,5-a]pyridin-5-yl]-benzoyl}-piperidine-2-carboxylic acid amide]
21 | > 1000 |  | < 100 | > 1000 | CC1CCN(C(=O)c2ccc(-c3cccc4nc(NC(=O)C5CC5)nn34)cc2)CC1 [Compound 146, N-(5-(4-(4-methylpiperidine-1-carbonyl)phenyl)-[1,2,4]triazolo[1,5-a]pyridin-2-yl)cyclopropanecarboxamide]
